Reference: US11697798B2, “Enhanced differentiation and maturation of pluripotent stem cell-derived myogenic cells” (Regents of the University of Minnesota, priority 2017, dated 2023)

Experiments:
Format in all cases: cell-based, human
[1] = system: hES (H9) and iPS (PLZ) cell-derived myogenic progenitors; experiment: RT-qPCR of myotubes differentiated from myogenic progenitors with gamma secretase inhibitors; details: for mRNA expression level of MHC3 compared to non-treated cells / mRNA expression level of Myogenin compared to non-treated cells: 10 uM, KOSR- or horse serum-based media, 5 days at 37° C.
Protocol: (§1) Human induced Pluripotent Stem Cells (hiPSC, PLZ) or Embryonic Stem Cells (hESC, H9) were transduced with the lentiviral constructs pSAM2-PAX7-ires-GFP and pFUGW-rtTA to generate doxycycline-inducible PAX7 (iPAX7) PS-cells as previously reported (Darabi, 2012). iPAX7-PS cells were cultured on matrigel-coated flasks using mTeSR1 medium (Stem Cell Technology). Cells were differentiated to myogenic progenitors as previously described (Darabi and Perlingeiro, 2016). Briefly, iPAX7-PS cells were detached with Accumax and 1×10^6 cells were plated in 6 cm non-adherent Petri dishes with mTeSR1 supplemented with 10 uM Y-27632 (ROCK inhibitor) and incubated at 37° C., 5% CO2 on a shaker at 60 RPM for 48 h. Then, medium was replaced with EB Myogenic (EBM) Medium supplemented with 10 uM […] (GSK3-β inhibitor) and 10 uM Y-27632. Three days later supplements were removed by changing to fresh medium. At day 7, EBs were plated on gelatin-coated flasks with EBM medium+10 ng/ml human basic FGF (bFGF) and three days later 1 ug/ml of doxycycline was added to the medium to induce PAX7 expression. Cells were harvested by trypsinization at day 14 and subsequently FACS sorted for GFP(+) expression. From this point, cells are considered as myogenic progenitors and cultured on gelatin-coated flasks using EBM medium+10 ng/ml bFGF+1 ug/ml Dox.
(§2) For terminal differentiation, myogenic progenitors at P3-P5 were plated on gelatin-coated dishes with EBM medium+10 ng/ml bFGF+1 ug/ml Dox. Upon reaching 100% confluency, medium was removed and replaced with knockout serum replacement (KOSR) or horse serum based terminal differentiation medium (TDM) supplemented with 10 uM DAPT, 10 uM BMS-906024.5 days after terminal differentiation, cells were fixed or collected for RNA analysis.
Differentiated myotubes (5d) were collected with TRIzol (Thermo Fisher Scientific) and RNA was purified using the Direct-zol RNA MiniPrep Plus (Zymo Research) following manufacturer's instructions. cDNA was obtained by RT-PCR using SuperScript VILO (Invitrogen) and qPCR was performed by using the Premix Ex Taq ROX plus (Takara) and TaMan probes (Thermo Fisher Scientific) specific to the genes of interest. qPCR was done with a QuantStudio 6 Flex Real-Time PCR System (Thermo Fisher Scientific). Data was normalized to GAPDH expression.

[2] = system: hiPS cell-derived myogenic progenitors; experiment: Immunofluorescence staining for MHC and MYOG after terminal differentiation; details: for Myogenin (MYOG) immunofluorescence: clustering of myogenic nuclei / Myosin heavy chain (MHC) immunofluorescence: fusion, myotube thickness: KOSR-based differentiation medium; for Myosin heavy chain (MHC) immunofluorescence: fusion, myotube thickness: versus untreated control
Protocol: as §1, §2
After 5 days of terminal differentiation, cells were washed with PBS and fixed with 4% PFA/PBS for 10 min. Then, cells were permeabilized with 0.3% Triton X-100/PBS for 15 min and blocked with 3% BSA/PBS for 20 min. Cells were incubated with a primary antibody that recognizes all MHC isoforms (MF-20, Developmental Studies Hybridoma Bank) overnight at 4° C. The next day, cells were incubated with an Alexa-555 secondary antibody supplemented with DAPI for 1 h at RT. Cells were analyzed by epifluorescence microscopy.

[3] = system: hiPS cell-derived myogenic progenitors; experiment: Western blot for MHC8 protein in terminally differentiated myotubes; details: horse serum-based differentiation medium, TUBB loading control
Protocol: as §1, with “Dox. […]” for “Dox.”

[4] = system: myotubes derived from hESC-1, hiPSC-1 and hiPSC-2; experiment: Small molecule library screening (Tocriscreen Stem Cell Toolbox), MHC/DAPI area ratio; details: terminal differentiation
Protocol: After 24 hours, cells were switched to MM with 1 μg/ml Doxycyline and incubated at 37° C. for 2 days. 1/10th of EBs were then plated on gelatin coated T-75 flasks in MM with 1 μg/ml dox and 5 ng/ml human basic fibroblast growth factor (bFGF). After 4 days, cells were dissociated with 0.25% trypsin-EDTA, FACS sorted for GFP to derive myogenic progenitors which were plated at a density of 2 million/T-75 flask in MM with 1 μg/ml dox and 5 ng/ml bFGF. Once the cells reached 90% confluency, myogenic progenitors were dissociated with 0.25% trypsin-EDTA and passaged at a ratio of 1:6 to 1:8. To induce terminal differentiation, myogenic progenitors at P3-4 were plated at a density of 75,000 cells/24-well plate and allowed to grow confluent for 3 days. The medium was then switched to low nutrient differentiation medium (DM) consisting of DMEM-KO supplemented with 20% KOSR, 1% NEAA, 1% glutamax and 1% penicillin-streptomycin and incubated for five days to derive myotubes. Transplantation Experiment
Small molecule library screening was done using the tocriscreen stem cell toolbox kit (tocris) which consisted of 80 compounds. Myogenic progenitors at passage P3 or P4 were seeded at 12,000 cells/well in 96-well plates (triplicates) and incubated at 37° C. for 3 days to reach 100% confluency. After 3 days, the cells were switched to DM supplemented with 10 μM of the compounds from the library or with DMSO. Cells were incubated in this differentiation medium for 5 days to derive myotubes. Cells were then fixed with 4% PFA and stained for MHC and DAPI. The stained plates were imaged using cytation plate reader and 49 pictures were taken per well to cover most of the area. The images were stitched together and the ratio of area of MHC/DAPI staining was quantified using Image J and normalized to that of DMSO treated cells. […] Different combinations were made with selected compounds and their effect on differentiation was tested and quantified. […]

[5] = horse serum-based differentiation medium, hiPS

Structure (SMILES) | mRNA expression level of MHC3 compared to non-treated cells [1] | mRNA expression level of Myogenin compared to non-treated cells [1] | Myogenin (MYOG) immunofluorescence: clustering of myogenic nuclei [2] | Myosin heavy chain (MHC) immunofluorescence: fusion, myotube thickness [2] | neonatal Myosin Heavy Chain (MHC8) protein detection by Western blot [3] | expression level of CAPN3 compared to untreated control [1, 5] [fold] | expression level of embryonic myosin heavy chain (MHC3) [1, 5] | expression level of neonatal myosin heavy chain (MHC8) [1, 5] | efficiency of differentiation by MHC and MYOG immunofluorescence ([2]; horse serum-based (HS) differentiation medium) | myotube differentiation efficiency [4]
CN1C(=O)[C@@H](NC(=O)[C@H](CCC(F)(F)F)[C@H](CCC(F)(F)F)C(N)=O)N=C(c2ccccc2)c2ccccc21 [BMS-906024] | increased mRNA expression levels | increased mRNA expression levels | induce clustering of the myogenic nuclei | improve the fusion of the nuclei to give rise to thick myotubes |  |  |  |  |  | 
CC(NC(=O)Cc1cc(F)cc(F)c1)C(=O)N[C@H](C(=O)OC(C)(C)C)c1ccccc1 (stereo partly shown) [DAPT] | increased mRNA expression levels | increased mRNA expression levels | induce clustering of the myogenic nuclei | improve the fusion of the nuclei to give rise to thick myotubes | can be detected only in the presence of DAPT | 5 | enhances the expression levels | more than 200 fold | improves the efficiency of the differentiation | promoted higher myotube differentiation efficiency
O=C(NOC[C@H](O)CO)c1ccc(F)c(F)c1Nc1ccc(I)cc1F [PD 0325901] |  |  |  |  |  |  |  |  |  | promoted higher myotube differentiation efficiency
NC(=O)c1ccc(-c2nc(-c3ccc4c(c3)OCO4)c(-c3ccccn3)[nH]2)cc1 [SB 431542] |  |  |  |  |  |  |  |  |  | promoted higher myotube differentiation efficiency
